Experimental data as given in patent US20040265840A1, “Preservation of RNA quality and content in tissue sections during immunohistochemistry” (priority 2002, published 2004).

Tested on: RNase activity in a processed tissue
Assay: Inhibition of RNase activity in processed tissue during IHC staining
Settings: compared to other commercially available RNase inhibitors
Protocol: In one embodiment of the invention, the invention provides methods that preserve or maintain RNA quality and content in an IHC sample, such as for LCM, by use of a ribonucleoside vanadyl complex (RVC) as an RNase inhibitor. […] Use of RVCs is preferred in the practice of the invention over other RNase inhibitors and allows for performance of IHC staining of samples for LCM and downstream gene expression analysis.
The immunostaining was performed on frozen, acetone fixed, sections. RVCs (Ribonucleoside Vanadyl Complexes, Sigma catalog #R3380; Berger et al. Biochemistry 1979, 18:51431; Pukas et al., Biochemistry 1982, 21:46023) at 20 mM were added to all the acts of the staining including primary antibody solution, secondary antibody solution, and rinsing solutions (phosphate buffered saline or PBS). The processing was as follows:
IHC staining was performed on frozen, acetone fixed sections. All reagent solutions were prepared with nuclease free PBS containing a RVC RNase inhibitor and kept at +4° C. The slides were removed from −80° C. storage, 30 seconds are allowed for the condensation to disappear prior to fixing. The staining procedure was done at +4° C. by keeping the slides on a cold block through all parts of the procedure: […]

inhibition of RNase activity in a processed tissue: superior inhibition of RNase activity
Substance: Ribonucleoside Vanadyl Complexes [RVCs]
